# Experimental data as given in patent publication US20230330112A1, “COMPOSITION AND TREATMENT FOR CANCER WITH MUTATIONS” (BRIDGE BIOTHERAPEUTICS, INC., priority 2022, published 2023).
# Assays:
# [1] = system: Ba/F3 EGFR 19Del/T790M/C797S xenografts; test: Ba/F3 EGFR 19Del/T790M/C797S xenograft study; assay type: in vivo, mouse; details: even at 25 mg/kg
# Procedure: (§1) For Ba/F3 EGFR 19Del/C797S and EGFR 19Del/T790M/C797S xenografts models, each mouse was inoculated subcutaneously at the right flank with cells (0.5×10^6) in 0.1 mL of PBS supplemented with BD Matrigel (1:1) for tumor development. The animals were randomized, and treatment was started when the average tumor volume reached 150-180 mm^3 for the efficacy study.
# (§2) Tumor volumes were measured twice weekly in two dimensions using a caliper, and the volume was expressed in mm^3 using the formula: volume=0.5 a×b^2 where a and b are the long and short diameters of the tumor, respectively. The tumor sizes were then used for the calculations of T/C (treatment/control) values. The tumor volume was used for calculation of tumor growth index (TGI) of each group according to the following formula: TGI (%)=[1-(Tti-Tt0)/(Vci-Vc0)]×100. The bodyweight of mice was measured daily for the dosing phase, and the relative change of bodyweight (RCBW) of each mouse according to the following formula: […]
# [2] = system: Ba/F3 EGFR 19Del/C797S xenograft; test: Ba/F3 EGFR 19Del/C797S xenograft study; assay type: in vivo, mouse; details: even at 25 mg/kg
# Procedure: as §1, §2
smiles,measurement,setting,value
"C=CC(=O)Nc1cc(Nc2nccc(-c3cn(C)c4ccccc34)n2)c(OC)cc1N(C)CCN(C)C [osimertinib, reference compound]",tumor growth,[1],did not block the tumor growth
same,tumor growth,[2],did not block the tumor growth
